Experimental data reported in patent publication US11938129B2, “Methods and compositions for the treatment of vascular disease” (THE GENERAL HOSPITAL CORPORATION, priority 2018, dated 2024).

What was measured:
[1] = system: FAK; experiment: immunofluorescence of p-FAK in ligated carotid; type: in vivo, mouse; settings: media and intima of carotid arteries
Procedure: (§1) All mice used in this study were cared for under strict compliance with the Partners Institutional Animal Care and Use Committee (IACUC), regulated by the United States Public Health Service (USPHS). Carotid ligations were performed in 10 week old mice. Briefly, animals were anesthetized using intraperitoneal ketamine/xylazine (80 and 12 mg/kg, respectively) followed by a small incision in the neck to expose the carotid artery. Then the left carotid was ligated at the carotid bifurcation level using a 8-0 silk suture. At 21 days mice were sacrificed and carotids were collected for histological analysis. Approximately 98% of wild type mice developed stenotic lesions. Mice that developed thrombosis of the ligated carotid were excluded from the study (−1¬2%). Malatl knockout mice were kindly provided by Dr. David Spector (Cold Spring Harbor, N.Y.). Hdac9 flox/flox/Talgn-cre mice were generated as previously reported (10). […]
(§2) Left and right carotids were cryosectioned using OCT standard protocol and sectioning. […] Slides 1, 5, 10, and 15 were H&E stained for quantification of neointima. For quantification of the neointima, internal and external elastic lamina perimeters and medial thickness from 4 quadrants were measured and averaged using Image J software from the National Institutes of Health (NIH). […]

[2] = system: Hdac9; experiment: immunofluorescence of Hdac9 in ligated carotid; type: in vivo, mouse; settings: arterial media and intima of carotid arteries
Procedure: as §1, §2

[3] = system: SM22a expression in TAA VSMCs; experiment: in vitro GSK343 treatment of isolated TAA VSMCs, SM22a immunoblotting after TGF-β1; type: cell-based, human; settings: GSK343, TGF-β1 10 ng/mL
Procedure: Primary human aortic smooth muscle cells (HAoSMC) from healthy donors were purchased from Cell Applications Inc., California, USA (Cat. #354K-05a). Primary aneurysm aortic SMCs were isolated from fresh TAA tissue at the moment of surgery by standard explant of the aortic media. Mouse aortic SMCs were isolated by standard explant of the ascending section of the aortas from wild-type or Fbn1ci°39G1+ mice. Smooth muscle cell identity was assessed by immunofluorescence staining of contractile markers including SM22a, Calponin, Smoothelin and Vinculin. In order to preserve cell identity all experiments were carried out at passages 1-5 (Timraz et al., 2016). Human and murine SMCs were grown with smooth muscle cell growth medium from Cell Applications Inc. (Cat. #311-500). VSMCs at 60-70% confluence were supplemented with opti-MEM 24 hrs before treatment with complete growing media containing GSK343 at a concentration of […] for 4 days. Fresh media containing GSK343 was supplied daily. For GSK343/TGF81 (10 ng/mL) combo treatment, cells were first treated with complete media containing GSK343 at concentration of 10 nM during the 2 first days followed by GSK343/TGFβ combination treatment the next 2 days. Prior to cellular collection cells were washed with sterile PBS and RNA or protein extraction were performed as described above.

[4] = system: aortic wall of Fbn1C1039G/+ mice; experiment: histologic analysis of aortas of treated Fbn1C1039G/+ mice; type: in vivo, mouse; settings: aortas of Fbn1C1039G/+ mice treated from two to six months
Procedure: Latex was injected into the left ventricular apex under low pressure until it was visible in the femoral artery. Animals were then fixed in Formalin (10%) for 24 hours before transfer to 70% ethanol for dissection and storage. Aortas were then removed from the animals or dissected in situ for photography prior to paraffinization and sectioning (10 pM). Slides were produced for tissue staining or stained with standard stains including H&E staining, collagen deposition (Trichrome Stain (Masson) Kit, Sigma, USA), elastin (Verhoeff-Van Gieson, Thermo Scientific, MI, USA) or F-actin (ActinGreen™ 488 ReadyProbes, ThermoFisher Scientific, USA) for quantitative analysis. Elastin integrity score was rated by blinded observers and graded on an arbitrary scale of 5 (indicating high quality elastic fiber) to 1 (indicating severe elastin fragmentation). For nuclear staining aortas from human and mice were cryosectioned using OCT standard protocol as described previously (Fischer et al., 2008). Cohorts of 8-week-old wild-type or Fbn1cw3gGi+ mice were treated with oral administration in drinking water of either Losartan or GSK343 for 20 weeks (FIG. 5). […] Then 200 mL of drinking water was supplemented with 250 pL of GSK343 stock solution. Control group for either drug treatment was given with equal volumes of sterile water. Bottles containing either losartan or GSKS343 were replaced with fresh water supplied with drugs every 3 days. For experiments described in FIG. 5A-5C, 16-week-old wild-type or Fbnicw3gGi+ mice were treated for 8 weeks and as described above. Additionally, a group of mice were given a combination of both losartan and GSK343 at the same concentrations as of other single drug treatments. Aortic dimensions were monitored monthly by echocardiograms as mentioned above.

[5] = molecular target: EZH1 (Homo sapiens, UniProt Q92800); settings: cited from earlier work
Chain of EZH1 (Q92800 whole entry, species assumed): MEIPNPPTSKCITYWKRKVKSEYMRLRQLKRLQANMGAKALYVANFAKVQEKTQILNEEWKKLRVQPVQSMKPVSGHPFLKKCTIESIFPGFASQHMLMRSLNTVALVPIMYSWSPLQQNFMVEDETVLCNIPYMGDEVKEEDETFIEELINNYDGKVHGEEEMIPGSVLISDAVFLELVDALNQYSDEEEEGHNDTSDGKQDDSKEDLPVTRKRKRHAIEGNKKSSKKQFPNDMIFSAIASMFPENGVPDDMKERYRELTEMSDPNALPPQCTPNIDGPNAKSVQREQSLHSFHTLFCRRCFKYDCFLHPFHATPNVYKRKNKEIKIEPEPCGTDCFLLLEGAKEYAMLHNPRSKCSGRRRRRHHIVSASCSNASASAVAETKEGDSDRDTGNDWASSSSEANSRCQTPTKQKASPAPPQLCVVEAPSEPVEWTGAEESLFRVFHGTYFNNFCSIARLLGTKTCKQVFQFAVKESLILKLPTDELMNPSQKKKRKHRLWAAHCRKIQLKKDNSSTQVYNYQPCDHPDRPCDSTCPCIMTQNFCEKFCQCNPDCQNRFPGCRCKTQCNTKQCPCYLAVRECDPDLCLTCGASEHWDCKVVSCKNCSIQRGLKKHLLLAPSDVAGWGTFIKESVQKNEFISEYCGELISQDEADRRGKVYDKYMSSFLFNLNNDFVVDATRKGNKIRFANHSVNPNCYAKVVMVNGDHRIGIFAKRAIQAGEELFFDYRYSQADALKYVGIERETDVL
Chain of EZH1 (O75530 whole entry partner, species assumed): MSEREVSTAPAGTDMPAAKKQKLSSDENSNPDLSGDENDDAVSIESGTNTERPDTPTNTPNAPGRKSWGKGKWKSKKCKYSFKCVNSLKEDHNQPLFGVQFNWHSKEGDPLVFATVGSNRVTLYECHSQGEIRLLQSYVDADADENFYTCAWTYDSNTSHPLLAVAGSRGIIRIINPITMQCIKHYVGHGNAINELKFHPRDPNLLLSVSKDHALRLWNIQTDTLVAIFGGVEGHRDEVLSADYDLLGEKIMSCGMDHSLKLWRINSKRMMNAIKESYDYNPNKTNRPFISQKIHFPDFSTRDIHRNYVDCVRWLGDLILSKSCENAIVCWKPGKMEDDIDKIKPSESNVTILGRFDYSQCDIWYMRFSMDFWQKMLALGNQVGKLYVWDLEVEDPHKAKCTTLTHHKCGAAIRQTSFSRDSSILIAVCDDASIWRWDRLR
Chain of EZH1 (Q15022 whole entry partner, species assumed): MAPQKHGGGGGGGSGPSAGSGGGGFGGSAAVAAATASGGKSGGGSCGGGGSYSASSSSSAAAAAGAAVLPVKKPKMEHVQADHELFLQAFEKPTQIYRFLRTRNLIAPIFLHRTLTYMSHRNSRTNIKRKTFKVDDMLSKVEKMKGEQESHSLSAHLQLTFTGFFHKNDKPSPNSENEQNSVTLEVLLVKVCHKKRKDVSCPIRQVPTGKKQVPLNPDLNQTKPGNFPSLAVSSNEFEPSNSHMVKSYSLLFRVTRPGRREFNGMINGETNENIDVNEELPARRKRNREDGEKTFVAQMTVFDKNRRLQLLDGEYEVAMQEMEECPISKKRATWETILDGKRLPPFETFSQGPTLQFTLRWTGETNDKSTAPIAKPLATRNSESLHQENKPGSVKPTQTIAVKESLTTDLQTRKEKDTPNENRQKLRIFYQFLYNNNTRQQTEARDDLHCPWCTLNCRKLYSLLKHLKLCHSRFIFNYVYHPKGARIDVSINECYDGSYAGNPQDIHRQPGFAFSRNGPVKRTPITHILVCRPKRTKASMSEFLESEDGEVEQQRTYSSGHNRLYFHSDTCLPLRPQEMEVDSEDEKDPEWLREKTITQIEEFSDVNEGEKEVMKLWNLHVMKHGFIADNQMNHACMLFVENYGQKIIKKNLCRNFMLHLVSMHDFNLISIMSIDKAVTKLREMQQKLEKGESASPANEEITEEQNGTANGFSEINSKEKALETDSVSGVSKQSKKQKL
Chain of EZH1 (Q09028 whole entry partner, species assumed): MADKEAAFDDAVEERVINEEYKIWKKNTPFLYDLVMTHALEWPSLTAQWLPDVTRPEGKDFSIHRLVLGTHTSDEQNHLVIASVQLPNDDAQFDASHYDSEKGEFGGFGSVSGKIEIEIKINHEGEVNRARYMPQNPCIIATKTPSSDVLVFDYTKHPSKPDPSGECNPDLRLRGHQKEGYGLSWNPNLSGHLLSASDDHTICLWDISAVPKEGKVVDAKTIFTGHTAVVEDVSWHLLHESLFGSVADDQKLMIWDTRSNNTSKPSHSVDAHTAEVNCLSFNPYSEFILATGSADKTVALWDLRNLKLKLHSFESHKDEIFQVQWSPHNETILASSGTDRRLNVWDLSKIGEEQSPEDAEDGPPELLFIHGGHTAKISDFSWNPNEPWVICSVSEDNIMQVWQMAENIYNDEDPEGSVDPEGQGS
Chain of EZH1 (Q6ZN18 whole entry partner, species assumed): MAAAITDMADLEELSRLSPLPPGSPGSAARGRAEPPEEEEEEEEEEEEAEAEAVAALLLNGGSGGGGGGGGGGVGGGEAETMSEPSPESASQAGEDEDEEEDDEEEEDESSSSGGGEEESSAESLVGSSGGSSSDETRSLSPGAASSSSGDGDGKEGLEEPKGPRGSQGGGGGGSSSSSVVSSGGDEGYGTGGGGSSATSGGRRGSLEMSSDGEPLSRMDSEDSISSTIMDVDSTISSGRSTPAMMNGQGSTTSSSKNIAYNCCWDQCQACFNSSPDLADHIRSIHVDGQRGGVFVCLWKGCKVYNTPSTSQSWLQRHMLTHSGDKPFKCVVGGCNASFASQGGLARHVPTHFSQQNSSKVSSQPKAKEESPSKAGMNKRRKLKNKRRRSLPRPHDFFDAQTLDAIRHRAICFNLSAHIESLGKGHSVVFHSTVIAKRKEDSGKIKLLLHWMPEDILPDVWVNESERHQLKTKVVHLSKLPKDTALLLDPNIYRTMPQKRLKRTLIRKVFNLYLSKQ

[6] = system: H3K27 methylation in HCC1806 cells; settings: read-out: IC50 for inhibition of H3K27 methylation; cited from earlier work

CCCc1cc(C)[nH]c(=O)c1CNC(=O)c1cc(-c2ccnc(N3CCN(C)CC3)c2)cc2c1cnn2C(C)C [GSK343]
phosphorylation of FAK [1]: dramatic reduction | accumulation of Hdac9 [2]: decreased accumulation | SM22a expression after stimulation with recombinant TGF-β1 [3]: recovered the ability to induce SM22a expression | aortic architecture and filamentous actin content [4]: improvement | elastin integrity [4]: not a significant improvement in elastin fiber integrity | selectivity for EZH2 vs. EZH1 [5]: 60 fold | IC50 [6]: < 200 nM
